From patent publication US11382328B2, “Rapid drug discovery methods for pathogen inactivation” (priority 2019, dated 2022)

System: E. coli strain W3110
Assay: Synergy assays: Biolog chemical sensitivity panels with Group IB metal, coefficient of drug interaction (CDI) from relative growth
Assay type: cell-based
Conditions: for CDI (coefficient of drug interaction), gold + biocide: Gold (μM); for CDI (coefficient of drug interaction), copper mixed with biocide: Copper (mM) section, 4th of four biocide concentrations
[1] = Silver 0.5 μM, biocide concentration 3 of 4
[2] = Silver 0.5 μM, biocide concentration 4 of 4
[3] = Silver 1.0 μM, biocide concentration 3 of 4
[4] = Silver 1.0 μM, biocide concentration 4 of 4
[5] = Silver 5.0 μM, biocide concentration 3 of 4
[6] = Silver 5.0 μM, biocide concentration 4 of 4

CSCCC(N)C(=O)NO (racemic) [D,L-methionine hydroxamate]
CDI (coefficient of drug interaction) (Copper (mM), 1st of 3 copper concentrations (head line not shown), biocide concentration 2 of 4, E. coli): 1.19 | CDI (coefficient of drug interaction) (Copper (mM), 1st of 3 copper concentrations (head line not shown), biocide concentration 3 of 4, E. coli): 1.02 | CDI (coefficient of drug interaction) (Copper (mM), 1st of 3 copper concentrations (head line not shown), biocide concentration 4 of 4, E. coli): 0.91 | CDI (coefficient of drug interaction) (Copper (mM), 2nd of 3 copper concentrations (head line not shown), biocide concentration 1 of 4, E. coli): 0.84 | CDI (coefficient of drug interaction) (Copper (mM), 2nd of 3 copper concentrations (head line not shown), biocide concentration 2 of 4, E. coli): 0.95 | CDI (coefficient of drug interaction) (Copper (mM), 2nd of 3 copper concentrations (head line not shown), biocide concentration 3 of 4, E. coli): 2.26 | CDI (coefficient of drug interaction) (Copper (mM), 2nd of 3 copper concentrations (head line not shown), biocide concentration 4 of 4, E. coli): 3.51 | CDI (coefficient of drug interaction) (Copper (mM), 3rd of 3 copper concentrations (head line not shown), biocide concentration 1 of 4, E. coli): 0.98 | CDI (coefficient of drug interaction) (Copper (mM), 3rd of 3 copper concentrations (head line not shown), biocide concentration 3 of 4, E. coli): 1.51 | CDI (coefficient of drug interaction) (Copper (mM), 3rd of 3 copper concentrations (head line not shown), biocide concentration 4 of 4, E. coli): 1.54 | CDI (coefficient of drug interaction), gold + biocide (first of 3 gold concentrations, biocide concentration 1 of 4): 1.08 | CDI (coefficient of drug interaction), gold + biocide (first of 3 gold concentrations, biocide concentration 2 of 4): 1.10 | CDI (coefficient of drug interaction), gold + biocide (first of 3 gold concentrations, biocide concentration 3 of 4): 1.06 | CDI (coefficient of drug interaction), gold + biocide (first of 3 gold concentrations, biocide concentration 4 of 4): Tox | CDI (coefficient of drug interaction), gold + biocide (second of 3 gold concentrations, biocide concentration 1 of 4): 1.03 | CDI (coefficient of drug interaction), gold + biocide (second of 3 gold concentrations, biocide concentration 2 of 4): 1.04 | CDI (coefficient of drug interaction), gold + biocide (second of 3 gold concentrations, biocide concentration 3 of 4): 1.08 | CDI (coefficient of drug interaction), gold + biocide (second of 3 gold concentrations, biocide concentration 4 of 4): Tox | CDI (coefficient of drug interaction), gold + biocide (third of 3 gold concentrations, biocide concentration 1 of 4): 0.92 | CDI (coefficient of drug interaction), gold + biocide (third of 3 gold concentrations, biocide concentration 2 of 4): 0.96 | CDI (coefficient of drug interaction), gold + biocide (third of 3 gold concentrations, biocide concentration 3 of 4): 0.93 | CDI (coefficient of drug interaction), gold + biocide (third of 3 gold concentrations, biocide concentration 4 of 4): Tox | CDI (Silver 0.5 μM, biocide concentration 1 of 4): 0.88 | CDI (Silver 0.5 μM, biocide concentration 2 of 4): 1.04 | CDI [1]: Tox | CDI [2]: Tox | CDI (Silver 1.0 μM, biocide concentration 1 of 4): 1.04 | CDI (Silver 1.0 μM, biocide concentration 2 of 4): 0.99 | CDI [3]: Tox | CDI [4]: Tox | CDI (Silver 5.0 μM, biocide concentration 1 of 4): 0.71 | CDI (Silver 5.0 μM, biocide concentration 2 of 4): 0.42 | CDI [5]: Tox | CDI [6]: Tox

Cl.N[C@@H](CCl)C(=O)O [β-Chloro-L-alanine HCl, β-chloro-L-alanine hydrochloride]
CDI [1]: Tox | CDI [2]: Tox | CDI [3]: Tox | CDI [4]: Tox | CDI [5]: Tox | CDI [6]: Tox

COc1ccc(CO)cc1OC [3,4-dimethoxybenzyl alcohol]
CDI (coefficient of drug interaction), copper mixed with biocide (1st of 3 copper concentrations (value not shown)): Tox | CDI (coefficient of drug interaction), copper mixed with biocide (2nd of 3 copper concentrations (value not shown)): Tox | CDI (coefficient of drug interaction), copper mixed with biocide (3rd of 3 copper concentrations (value not shown)): Tox | CDI (coefficient of drug interaction) (Gold section of Table 5, first of three gold concentrations (μM, value not given), biocide concentration 4 of 4): Tox | CDI (coefficient of drug interaction) (Gold section of Table 5, second of three gold concentrations (μM, value not given), biocide concentration 4 of 4): Tox | CDI (coefficient of drug interaction) (Gold section of Table 5, third of three gold concentrations (μM, value not given), biocide concentration 4 of 4): Tox | CDI [2]: Tox | CDI [4]: Tox | CDI [6]: Tox
